Data: patent US20230045421A1 (priority 2018, published 2023)
Where two headings read alike, the source gives them in different places.

System: HBV rcDNA
Experiment: HepDE19 assay with bDNA quantitation of HBV rcDNA
Type: cell-based, hepatitis B virus
Method in brief: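 Compounds, top concentration 25 μM in 8-point duplicate series, were applied to Tet-free HepDE19 cultures for 7 days. Branched-DNA quantitation of HBV rcDNA against untreated wells gave EC50 and EC90 by 4-parameter fit. Viability (CC50) came from ATP luminescence on parallel plates incubated 4 days.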

[1] = Hepatitis B virus, HepDE19, HepDE19 assay, inhibition of formation of rcDNA, read-out: DE-19bDNA EC50
[2] = HepDE19 assay, inhibition of formation of rcDNA, read-out: DE-19bDNA EC50
[3] = read-out: DE-19bDNA EC50, HepDE19 assay, inhibition of formation of relaxed circular DNA (rcDNA), bDNA quantitation
[4] = HepDE19 assay, inhibition of formation of relaxed circular DNA (rcDNA), bDNA quantitation, read-out: DE-19bDNA EC50

Structure (SMILES): COCCCn1cc(C(C)N(C)C(=O)Nc2ccc(F)c(Cl)c2)c2ccccc2c1=O (single isomer, unassigned) [Compound 200, 3-(3-Chloro-4-fluorophenyl)-1-(1-(2-(3-methoxypropyl)-1-oxo-1,2-dihydroisoquinolin-4-yl)ethyl)-1-methylurea]
- EC50 [1]: 0.4 µM

Structure (SMILES): CC(c1c[nH]c(=O)c2c(F)cc(F)cc12)N(CCCO)C(=O)Nc1ccc(F)c(Cl)c1 (stereo not drawn) [Compound 373, 3-(3-Chloro-4-fluorophenyl)-1-(1-(6,8-difluoro-1-oxo-1,2-dihydroisoquinolin-4-yl)ethyl)-1-(3-hydroxypropyl)urea]
- EC50 (Hepatitis B virus, HepDE19, HepDE19 assay, inhibition of formation of relaxed circular DNA (rcDNA), bDNA quantitation, read-out: DE-19bDNA EC50): 2.6 µM

Structure (SMILES): CC(c1cnc(OCc2ncn(C)n2)c2ccccc12)N(C)C(=O)Nc1ccc(F)c(Cl)c1 (single isomer, unassigned) [Compound 133, 3-(3-Chloro-4-fluorophenyl)-1-methyl-1-(1-(1-((1-methyl-1H-1,2,4-triazol-3-yl)methoxy)isoquinolin-4-yl)ethyl)urea]
- EC50 [2]: 5.9 µM

Structure (SMILES): CC(c1c[nH]c(=O)c2ccccc12)N(C[C@H]1CC[C@@H](O)CC1)C(=O)Nc1ccc(F)c(Cl)c1 (mixture of isomers) [Compound 225, cis-3-(3-Chloro-4-fluorophenyl)-1-((4-hydroxycyclohexyl)methyl)-1-(1-(1-oxo-1,2-dihydroisoquinolin-4-yl)ethyl)urea]
- EC50 [1]: 0.08 µM

Structure (SMILES): CC(c1c[nH]c(=O)c2cc(F)c(F)cc12)N(C)C(=O)N[C@H](C)c1ccccc1 (single isomer, unassigned) [Compound 479]
- EC50 (Hepatitis B virus, HepDE19, read-out: DE-19bDNA EC50 (μM), HepDE19 assay, inhibition of formation of relaxed circular DNA (rcDNA), bDNA quantitation): 9.4 µM

Structure (SMILES): CC(=O)N1CCC(CN(C(=O)Nc2ccc(F)c(Cl)c2)C(C)c2c[nH]c(=O)c3ccccc23)CC1 (single isomer, unassigned) [Compound 202, 1-((1-Acetylpiperidin-4-yl)methyl)-3-(3-chloro-4-fluorophenyl)-1-(1-(1-oxo-1,2-dihydroisoquinolin-4-yl)ethyl)urea]
- EC50 [2]: 7.3 µM

Structure (SMILES): CC(c1c[nH]c(=O)c2cc(F)c(F)cc12)N(C)C(=O)Nc1cc(Cl)cc(Cl)c1 (single isomer, unassigned) [Compound 417, 3-(3,5-Dichlorophenyl)-1-(1-(6,7-difluoro-1-oxo-1,2-dihydroisoquinolin-4-yl)ethyl)-1-methylurea]
- EC50 [3]: 0.14 µM

Structure (SMILES): CC(c1c[nH]c(=O)c2c(Cl)cccc12)N(C)C(=O)Nc1ccc(F)c(Cl)c1 (single isomer, unassigned) [Compound 167, 1-(1-(8-Chloro-1-oxo-1,2-dihydroisoquinolin-4-yl)ethyl)-3-(3-chloro-4-fluorophenyl)-1-methylurea]
- EC50 [2]: 2.4 µM

Structure (SMILES): CC(c1c[nH]c(=O)c2ccccc12)N(CCO)C(=O)Nc1ccc(F)c(Cl)c1 (single isomer, unassigned) [Compound 197, 3-(3-Chloro-4-fluorophenyl)-1-(2-hydroxyethyl)-1-(1-(1-oxo-1,2-dihydroisoquinolin-4-yl)ethyl)urea]
- EC50 [2]: 0.08 µM

Structure (SMILES): CNC(=O)CCN(C(=O)Nc1ccc(F)c(Cl)c1)C(C)c1c[nH]c(=O)c2ccccc12 (single isomer, unassigned) [Compound 118, 3-(3-(3-Chloro-4-fluorophenyl)-1-(1-(1-oxo-1,2-dihydroisoquinolin-4-yl)ethyl)ureido)-N-methylpropanamide]
- EC50 [2]: 0.14 µM

Structure (SMILES): C[C@H](c1c[nH]c(=O)c2ccccc12)N(C)C(=O)Nc1ccc(F)cc1 [Compound 90, (R)-3-(4-Fluorophenyl)-1-methyl-1-(1-(1-oxo-1,2-dihydroisoquinolin-4-yl)ethyl)urea]
- EC50 [1]: 0.46 µM

Structure (SMILES): CC(c1cnc(OCc2ncn(C)n2)c2cc(F)c(F)cc12)N(CCCO)C(=O)Nc1ccc(F)c(Cl)c1 (single isomer, unassigned) [Compound 349, 3-(3-chloro-4-fluorophenyl)-1-(1-(6,7-difluoro-1-((1-methyl-1H-1,2,4-triazol-3-yl)methoxy)isoquinolin-4-yl)ethyl)-1-(3-hydroxypropyl)urea]
- EC50 [4]: 0.005 µM

Structure (SMILES): COc1ccc2c(=O)[nH]cc(C(C)N(C)C(=O)Nc3ccc(F)c(Cl)c3)c2c1 (single isomer, unassigned) [Compound 180, 3-(3-Chloro-4-fluorophenyl)-1-(1-(6-methoxy-1-oxo-1,2-dihydroisoquinolin-4-yl)ethyl)-1-methylurea]
- EC50 [2]: 1.4 µM

Structure (SMILES): CC(c1cnc(NCc2ncn(C)n2)c2ccccc12)N(C)C(=O)Nc1ccc(F)c(Cl)c1 (single isomer, unassigned) [Compound 245, 3-(3-Chloro-4-fluorophenyl)-1-methyl-1-(1-(1-(((1-methyl-1H-1,2,4-triazol-3-yl)methyl)amino)isoquinolin-4-yl)ethyl)urea]
- EC50 [2]: 13 µM

Structure (SMILES): CC(c1c[nH]c(=O)c2c(F)c(F)ccc12)N(CCS(N)(=O)=O)C(=O)Nc1ccc(F)c(Cl)c1 (single isomer, unassigned) [Compound 392, 2-(3-(3-Chloro-4-fluorophenyl)-1-(1-(7,8-difluoro-1-oxo-1,2-dihydroisoquinolin-4-yl)ethyl)ureido) ethane-1-sulfonamide]
- EC50 [4]: 0.026 µM

Structure (SMILES): CC(c1c[nH]c(=O)c2ccccc12)N(CC1CCN(S(C)(=O)=O)CC1)C(=O)Nc1ccc(F)c(Cl)c1 (single isomer, unassigned) [Compound 203, 3-(3-Chloro-4-fluorophenyl)-1-((1-(methylsulfonyl)piperidin-4-yl)methyl)-1-(1-(1-oxo-1,2-dihydroisoquinolin-4-yl)ethyl)urea]
- EC50 [2]: 10.5 µM

Structure (SMILES): CC(c1c[nH]c(=O)c2ccccc12)N(CCC#N)C(=O)Nc1ccc(F)c(Cl)c1 (racemic) [Compound 103, 3-(3-chloro-4-fluorophenyl)-1-(2-cyanoethyl)-1-(1-(1-oxo-1,2-dihydroisoquinolin-4-yl)ethyl)urea]
- EC50 [1]: 0.27 µM

Structure (SMILES): CCN(C(=O)Nc1ccccc1)C(C)c1c[nH]c(=O)c2cc(F)c(F)cc12 (single isomer, unassigned) [Compound 404, 1-(1-(6,7-Difluoro-1-oxo-1,2-dihydroisoquinolin-4-yl)ethyl)-1-ethyl-3-phenylurea]
- EC50 [3]: 18 µM

Structure (SMILES): Cc1cc(NC(=O)N(C)C(C)c2c[nH]c(=O)c3cc(F)c(F)cc23)ccc1F (single isomer, unassigned) [Compound 426, 1-(1-(6,7-Difluoro-1-oxo-1,2-dihydroisoquinolin-4-yl)ethyl)-3-(4-fluoro-3-methylphenyl)-1-methylurea]
- EC50 [4]: 0.11 µM

Structure (SMILES): CCn1cc(C(C)N(C)C(=O)Nc2ccc(F)c(Cl)c2)c2ccccc2c1=O (single isomer, unassigned) [Compound 183, 3-(3-Chloro-4-fluorophenyl)-1-(1-(2-ethyl-1-oxo-1,2-dihydroisoquinolin-4-yl)ethyl)-1-methylurea]
- EC50 [2]: 18 µM

Structure (SMILES): CC(C)CN(C(=O)Nc1ccc(F)c(Cl)c1)C(C)c1c[nH]c(=O)c2ccccc12 (racemic) [Compound 135, 3-(3-chloro-4-fluorophenyl)-1-isobutyl-1-(1-(1-oxo-1,2-dihydroisoquinolin-4-yl)ethyl)urea]
- EC50 [1]: 0.01 µM

Structure (SMILES): CC(c1cn(C2CC2)c(=O)c2ccccc12)N(C)C(=O)Nc1ccc(F)c(Cl)c1 (single isomer, unassigned) [Compound 189, 3-(3-Chloro-4-fluorophenyl)-1-(1-(2-cyclopropyl-1-oxo-1,2-dihydroisoquinolin-4-yl)ethyl)-1-methylurea]
- EC50 [2]: 2.4 µM

Structure (SMILES): COc1ncc(C(C)N(C)C(=O)Nc2ccc(F)c(Cl)c2)c2ccccc12 (single isomer, unassigned) [Compound 30, 3-(3-chloro-4-fluorophenyl)-1-(1-(1-methoxyisoquinolin-4-yl)ethyl)-1-methylurea]
- EC50 [1]: 0.56 µM

Structure (SMILES): CCN(C(=O)Nc1ccc(F)c(Cl)c1)C(C)c1c[nH]c(=O)c2c(F)c(F)ccc12 (single isomer, unassigned) [Compound 468, 3-(3-Chloro-4-fluorophenyl)-1-(1-(7,8-difluoro-1-oxo-1,2-dihydroisoquinolin-4-yl)ethyl)-1-ethylurea]
- EC50 [4]: 1.1 µM

Structure (SMILES): CC(c1c[nH]c(=O)c2c(F)c(F)ccc12)N(C)C(=O)Nc1ccc(F)cc1 (single isomer, unassigned) [Compound 432, 1-(1-(7,8-Difluoro-1-oxo-1,2-dihydroisoquinolin-4-yl)ethyl)-3-(4-fluorophenyl)-1-methylurea]
- EC50 [4]: 11.2 µM

Structure (SMILES): CCNc1ncc(C(C)N(C)C(=O)Nc2ccc(F)c(Cl)c2)c2ccccc12 (single isomer, unassigned) [Compound 241, 3-(3-Chloro-4-fluorophenyl)-1-(1-(1-(ethylamino)isoquinolin-4-yl)ethyl)-1-methylurea]
- EC50 [2]: 0.11 µM

Structure (SMILES): C[C@H](c1c[nH]c(=O)c2ccccc12)N(C)C(=O)Nc1ccc(F)c(F)c1 [Compound 92, (R)-3-(3,4-Difluorophenyl)-1-methyl-1-(1-(1-oxo-1,2-dihydroisoquinolin-4-yl)ethyl)urea]
- EC50 [1]: 0.23 µM

Structure (SMILES): CC(c1cnc(C(N)=O)c2ccccc12)N(C)C(=O)Nc1ccc(F)c(Cl)c1 (single isomer, unassigned) [Compound 328, 4-(1-(3-(3-Chloro-4-fluorophenyl)-1-methylureido)ethyl)isoquinoline-1-carboxamide]
- EC50 [4]: 4.1 µM

Structure (SMILES): COc1ncc(C(C)N(CCNCC(F)(F)F)C(=O)Nc2ccc(F)c(Cl)c2)c2ccccc12 (racemic) [Compound 158, 3-(3-Chloro-4-fluorophenyl)-1-(1-(1-methoxyisoquinolin-4-yl)ethyl)-1-(2-((2,2,2-trifluoroethyl)amino)ethyl)urea]
- EC50 [1]: 2.7 µM

Structure (SMILES): CC(c1cn(C)c(=O)c2ccccc12)N(C)C(=O)Nc1ccc(F)c(Cl)c1 (single isomer, unassigned) [Compound 182, 3-(3-Chloro-4-fluorophenyl)-1-methyl-1-(1-(2-methyl-1-oxo-1,2-dihydroisoquinolin-4-yl)ethyl)urea]
- EC50 [2]: 0.03 µM
